The results in this text go back to US10206394B2, “Herbicidal compounds” (Syngenta Participations AG, priority 2014, dated 2019).

Like-named read-outs stand apart in the source and are kept apart here.

Common to all, as to test: Glasshouse assay for herbicidal activity (pre- and post-emergence), percentage phytotoxicity
What all share (assay type): in vivo

Experiment [1] concerns Alopecurus myosuroides (ALOMY). The conditions noted are these: Alopecurus myosuroides, Rate 250 g/ha, 100%=total damage, 0%=no damage. On the procedure:
(§1) Test—Glasshouse Assay for Herbicidal Activity
(§2) Seeds of a variety of monocotyledonous and dicotyledonous test plants are sown in standard soil in pots. The plants are cultivated for one day (for pre-emergence (PRE)) or for about 12 days (for post-emergence (POST)) under controlled conditions in a glasshouse (warm climate species at 24/18° C., cool climate species at 20/16° C., both at day/night; 16 hours light; 65% humidity).
(§3) The test plants are then grown on, in a glasshouse (greenhouse) under controlled conditions (warm climate species at 24/18° C., cool climate species at 20/16° C., both at day/night; 16 hours light; 65% humidity) and are watered twice daily. 15 days after application of the test herbicide (15 DAA) (for post-emergence), and 20 days after application of the test herbicide (20 DAA) (for pre-emergence), the test plants are evaluated visually, and an assessed percentage phytotoxicity score is given for each herbicidal application on each plant species (with 100%=total damage to plant; 0%=no damage to plant).
(§4) The plant species tested are as follows: Alopecurus myosuroides (ALOMY), Avena fatua (AVEFA), Lolium perenne (LOLPE), Echinochloa crus-galli (ECHCG).

Another experiment deals with Lolium perenne (LOLPE). The conditions noted are these: Lolium perenne, Rate 250 g/ha, 100%=total damage, 0%=no damage. On the procedure:
as §1, §2, §3, §4

The subject of the next experiment is Avena fatua (AVEFA). The conditions noted are these: Avena fatua, Rate 250 g/ha, 100%=total damage, 0%=no damage. On the procedure: as §1, §2, §3, §4
Experiment [2] deals with Echinochloa crus-galli (ECHCG). Particulars: Echinochloa crus-galli, Rate 250 g/ha, 100%=total damage, 0%=no damage. On the procedure:
as §1, §2, §3, §4

Setting [3] is: post-emergence, 360 h, post-emergence, assessed visually 15 DAA, read-out: Post-emergence herbicidal activity (percentage phytotoxicity) ALOMY POST.
The mark [4] stands for this setting: pre-emergence, 480 h, pre-emergence, assessed visually 20 DAA, read-out: Pre-emergence herbicidal activity (percentage phytotoxicity) ALOMY PRE.
The mark [5] stands for this setting: post-emergence, 360 h, post-emergence, assessed visually 15 DAA, read-out: Post-emergence herbicidal activity (percentage phytotoxicity) LOLPE POST.
The mark [6] stands for this setting: pre-emergence, 480 h, pre-emergence, assessed visually 20 DAA, read-out: Pre-emergence herbicidal activity (percentage phytotoxicity) LOLPE PRE.
Where [7] appears, read: post-emergence, 360 h, post-emergence, assessed visually 15 DAA, read-out: Post-emergence herbicidal activity (percentage phytotoxicity) AVEFA POST.
The mark [8] stands for this setting: pre-emergence, 480 h, pre-emergence, assessed visually 20 DAA, read-out: Pre-emergence herbicidal activity (percentage phytotoxicity) AVEFA PRE.
Setting [9] is: post-emergence, 360 h, post-emergence, assessed visually 15 DAA, read-out: Post-emergence herbicidal activity (percentage phytotoxicity) ECHCG POST.
Where [10] appears, read: pre-emergence, 480 h, pre-emergence, assessed visually 20 DAA, read-out: Pre-emergence herbicidal activity (percentage phytotoxicity) ECHCG PRE.

For the compound `Cc1cc(C)c(C2C(=O)CC(CC(=O)NCc3cccc(C(F)(F)F)c3)C2=O)c(C)c1` (centres unmarked) [Compound A89], the pest or weed control at 250 g/ha in experiment [1] (setting [3]) was 90%; in experiment [1] (setting [4]), 90%; in the experiment on Lolium perenne (LOLPE) (setting [5]), 100%; with Lolium perenne (LOLPE) (setting [6]) it was 90%; with Avena fatua (AVEFA) (setting [7]), 90%; in the experiment with Avena fatua (AVEFA) (setting [8]), 60%. Also, the pest or weed control at 250 g/ha in experiment [2] (setting [9]) and in experiment [2] (setting [10]) was 100% each time.
Consider `COc1ccccc1CNC(=O)CC1CC(=O)C(c2c(C)cc(C)cc2C)C1=O` (centres unmarked) [Compound A90], for which the pest or weed control at 250 g/ha in experiment [1] (setting [3]) was found to be 0%; in experiment [1] (setting [4]), 0%; in the experiment with Lolium perenne (LOLPE) (setting [5]), 70%; in the experiment with Lolium perenne (LOLPE) (setting [6]) it was 60%; in the experiment on Avena fatua (AVEFA) (setting [7]), 0%; in the experiment on Avena fatua (AVEFA) (setting [8]) it was 0%. Moreover, the pest or weed control at 250 g/ha in experiment [2] (setting [9]) stood at 80%; in experiment [2] (setting [10]), 40%.
For `Cc1cc(C)c(C2C(=O)CC(CC(=O)NCCC3=CCCCC3)C2=O)c(C)c1` (centres unmarked) [Compound A91], the pest or weed control at 250 g/ha was determined as 10% in experiment [1] (setting [3]); 30% in experiment [1] (setting [4]); 70% with Lolium perenne (LOLPE) (setting [5]); 70% in the experiment with Lolium perenne (LOLPE) (setting [6]); 0% with Avena fatua (AVEFA) (setting [7]); 30% in the experiment on Avena fatua (AVEFA) (setting [8]). The pest or weed control at 250 g/ha in experiment [2] (setting [9]) came out at 0%; in experiment [2] (setting [10]), 20%.
Consider `Cc1cc(C)c(C2C(=O)CC(CC(=O)NCc3ccc(OC(F)(F)F)cc3)C2=O)c(C)c1` (centres unmarked) [Compound A92], for which the pest or weed control at 250 g/ha came to 60% in experiment [1] (setting [3]); 70% in experiment [1] (setting [4]); 40% with Lolium perenne (LOLPE) (setting [5]); 90% with Lolium perenne (LOLPE) (setting [6]); 70% in the experiment with Avena fatua (AVEFA) (setting [7]); 60% in the experiment with Avena fatua (AVEFA) (setting [8]). For the same compound, the pest or weed control at 250 g/ha in experiment [2] (setting [9]) and in experiment [2] (setting [10]) was 80% in each case.
As to `Cc1cc(C)c(C2C(=O)CC(CC(=O)NC(C)c3ccc(F)cc3)C2=O)c(C)c1` (centres unmarked) [Compound A93], the pest or weed control at 250 g/ha in experiment [1] (setting [3]) is 100%; in experiment [1] (setting [4]), 90%; in the experiment on Lolium perenne (LOLPE) (setting [5]) it was 80%; with Lolium perenne (LOLPE) (setting [6]) it was 90%; in the experiment with Avena fatua (AVEFA) (setting [7]), 40%; in the experiment on Avena fatua (AVEFA) (setting [8]), 20%. Moreover, the pest or weed control at 250 g/ha in experiment [2] (setting [9]) was 70%; in experiment [2] (setting [10]), 60%.
Regarding `C=CCCNC(=O)CC1CC(=O)C(c2c(C)cc(C)cc2C)C1=O` (centres unmarked) [Compound A94], the pest or weed control at 250 g/ha in experiment [1] (setting [4]) came to 90%; in the experiment on Lolium perenne (LOLPE) (setting [6]) it was 90%; in the experiment on Avena fatua (AVEFA) (setting [8]), 20%; in experiment [2] (setting [9]) it was 80%; in experiment [2] (setting [10]), 60%.
As for `Cc1cc(C)c(C2C(=O)CC(CC(=O)NCc3cccc(Cl)c3)C2=O)c(C)c1` (centres unmarked) [Compound A96], the pest or weed control at 250 g/ha in experiment [1] (setting [3]) is 80%; in experiment [1] (setting [4]), 100%; with Lolium perenne (LOLPE) (setting [5]), 100%; with Lolium perenne (LOLPE) (setting [6]), 100%; with Avena fatua (AVEFA) (setting [7]) it was 80%; in the experiment on Avena fatua (AVEFA) (setting [8]), 70%. Besides, the pest or weed control at 250 g/ha in experiment [2] (setting [9]) was 80%; in experiment [2] (setting [10]) it was 100%.
Take `Cc1cc(C)c(C2C(=O)CC(CC(=O)NCc3ccc(C)o3)C2=O)c(C)c1` (centres unmarked) [Compound A97]: the pest or weed control at 250 g/ha was 70% in experiment [1] (setting [3]); 30% in experiment [1] (setting [4]); 70% in the experiment with Lolium perenne (LOLPE) (setting [5]); 90% in the experiment on Lolium perenne (LOLPE) (setting [6]); 20% in the experiment on Avena fatua (AVEFA) (setting [7]); 0% in the experiment with Avena fatua (AVEFA) (setting [8]). Besides, the pest or weed control at 250 g/ha in experiment [2] (setting [9]) and in experiment [2] (setting [10]) was 0% each time.
Turning to `Cc1cc(C)c(C2C(=O)CC(CC(=O)NCc3ccc(C(F)(F)F)nc3)C2=O)c(C)c1` (centres unmarked) [Compound A98], the pest or weed control at 250 g/ha was determined as 90% in experiment [1] (setting [3]); 100% in experiment [1] (setting [4]); 80% in the experiment on Lolium perenne (LOLPE) (setting [5]); 80% in the experiment with Lolium perenne (LOLPE) (setting [6]); 90% in the experiment with Avena fatua (AVEFA) (setting [7]); 20% in the experiment on Avena fatua (AVEFA) (setting [8]). Besides, the pest or weed control at 250 g/ha is 60% in experiment [2] (setting [9]) and 80% in experiment [2] (setting [10]).
Turning to `Cc1cc(C)c(C2C(=O)CC(CC(=O)NCc3ccoc3)C2=O)c(C)c1` (centres unmarked) [Compound A99], the pest or weed control at 250 g/ha in experiment [1] (setting [3]) was found to be 60%; in experiment [1] (setting [4]), 20%; in the experiment on Lolium perenne (LOLPE) (setting [5]), 70%; in the experiment on Lolium perenne (LOLPE) (setting [6]), 20%; with Avena fatua (AVEFA) (setting [7]), 30%; in the experiment with Avena fatua (AVEFA) (setting [8]), 0%. For the same compound, the pest or weed control at 250 g/ha in experiment [2] (setting [9]) and in experiment [2] (setting [10]) was 0% in each case.
As for `Cc1cc(C)c(C2C(=O)CC(CC(=O)NCc3nc4ccccc4s3)C2=O)c(C)c1` (centres unmarked) [Compound A100], the pest or weed control at 250 g/ha in experiment [1] (setting [3]) was determined as 70%; in experiment [1] (setting [4]), 90%; with Lolium perenne (LOLPE) (setting [5]) it was 70%; with Lolium perenne (LOLPE) (setting [6]) it was 80%; in the experiment on Avena fatua (AVEFA) (setting [7]) it was 0%; in the experiment on Avena fatua (AVEFA) (setting [8]), 0%. In addition, the pest or weed control at 250 g/ha in experiment [2] (setting [9]) and in experiment [2] (setting [10]) was 20% each time.
Consider `Cc1ccc(/C=C/C2(NC(=O)CC3CC(=O)C(c4c(C)cc(C)cc4C)C3=O)CC2)cc1` (centres unmarked) [Compound A101], for which the pest or weed control at 250 g/ha in experiment [1] (setting [3]) amounted to 10%; in the experiment on Lolium perenne (LOLPE) (setting [5]) it was 40%; with Avena fatua (AVEFA) (setting [7]), 0%; in experiment [2] (setting [9]), 20%.
For the compound `Cc1cc(C)c(C2C(=O)CC(CC(=O)NC3CCC(C)CC3C)C2=O)c(C)c1` (centres unmarked) [Compound A103], the pest or weed control at 250 g/ha was 60% in experiment [1] (setting [3]), 20% with Lolium perenne (LOLPE) (setting [5]), 10% with Avena fatua (AVEFA) (setting [7]) and 20% in experiment [2] (setting [9]).
Turning to `COCC#CC(C)(C)NC(=O)CC1CC(=O)C(c2c(C)cc(C)cc2C)C1=O` (centres unmarked) [Compound A104], the pest or weed control at 250 g/ha in experiment [1] (setting [3]) was found to be 90%; in experiment [1] (setting [4]), 90%; in the experiment on Lolium perenne (LOLPE) (setting [5]), 60%; in the experiment on Lolium perenne (LOLPE) (setting [6]), 80%; in the experiment with Avena fatua (AVEFA) (setting [7]), 70%; in the experiment on Avena fatua (AVEFA) (setting [8]), 0%. The pest or weed control at 250 g/ha in experiment [2] (setting [9]) worked out at 70%; in experiment [2] (setting [10]), 80%.
Take `Cc1cc(C)c(C2C(=O)CC(CC(=O)NCc3ncc(C)s3)C2=O)c(C)c1` (centres unmarked) [Compound A105]: the pest or weed control at 250 g/ha was found to be 80% in experiment [1] (setting [3]); 80% in experiment [1] (setting [4]); 70% in the experiment with Lolium perenne (LOLPE) (setting [5]); 70% in the experiment on Lolium perenne (LOLPE) (setting [6]); 0% in the experiment with Avena fatua (AVEFA) (setting [7]); 20% in the experiment with Avena fatua (AVEFA) (setting [8]). For the same compound, the results for the pest or weed control at 250 g/ha in experiment [2] (setting [9]) and in experiment [2] (setting [10]) were 60% and 70%, respectively.
As for `Cc1cc(C)c(C2C(=O)CC(CC(=O)NC3CCc4ccccc43)C2=O)c(C)c1` (centres unmarked) [Compound A106], the pest or weed control at 250 g/ha in experiment [1] (setting [3]) worked out at 30%; in experiment [1] (setting [4]), 0%; in the experiment on Lolium perenne (LOLPE) (setting [5]), 70%; with Lolium perenne (LOLPE) (setting [6]), 70%; with Avena fatua (AVEFA) (setting [7]) it was 0%; with Avena fatua (AVEFA) (setting [8]), 0%. The pest or weed control at 250 g/ha in experiment [2] (setting [9]) and in experiment [2] (setting [10]) was 20% each time.
For the compound `Cc1cc(C)c(C2C(=O)CC(CC(=O)NCc3ncccc3Cl)C2=O)c(C)c1` (centres unmarked) [Compound A107], the pest or weed control at 250 g/ha in experiment [1] (setting [3]) amounted to 80%; in experiment [1] (setting [4]) it was 80%; in the experiment with Lolium perenne (LOLPE) (setting [5]), 80%; with Lolium perenne (LOLPE) (setting [6]) it was 90%; with Avena fatua (AVEFA) (setting [7]) it was 90%; in the experiment with Avena fatua (AVEFA) (setting [8]), 10%. Further, the pest or weed control at 250 g/ha came out at 70% in experiment [2] (setting [9]) and 80% in experiment [2] (setting [10]).
